≈ marks a conversion by molar mass, not a printed value.
How the values were obtained:
[1] = tested on: human cryopreserved hepatocytes; assay: Metabolic rate of prodrugs in human cryopreserved hepatocytes; format: in vitro ADME; conditions: human hepatocytes 1.0×10^6 cells/mL, 50 μM, 2 h, 37 °C
Method: The metabolic rate of prodrugs was evaluated using human cryopreserved hepatocytes (Table 3). Although the metabolic rate of 3d with a bulky acyl group was decreased, most of the asymmetric structural analogs, including those with improved aqueous solubility (3b, 4a, (R)-4c), were metabolized to the active form as quickly as 1. Thus, we concluded that the chemical modifications applied here had little effect on the metabolic rate.
(§1) Test compounds (final 50 μM) in DMSO (final 0.5%) were added to a suspension of human hepatocytes (HMCS1S, Thermo Fisher Scientific) at a density of 1.0×10^6 cells/mL. The cells were incubated at 37 °C in humidified incubator (5% CO2) for 2 h, and then acetonitrile was added to stop the reaction. The mixture was vortexed and centrifuged at 15000 rpm for 10 min. HPLC analysis of the supernatant was performed on an analytical column (ODS reversed-phase column, 5 μm, 4.6 mm x 150 mm) eluted with a mobile phase consisting of H2O and CH3CN at a flow rate of 1.0 mL/min at 37 °C, with UV monitoring at 254 nm. Because some analogs were hydrolyzed in the absence of hepatocytes, we also evaluated the hydrolysis rate without hepatocytes.

LogP = format: physicochemical
Source text: LogP values of all analogs were higher than that of 1, as expected. […] The observation that the measured crystal densities of 3b, 4a and (R)-4c were lower than that of 1 supports this idea.

[2] = Thermodynamic aqueous solubility of the most stable crystals; format: physicochemical; conditions: for solubility at 48 h: phosphate buffer/EtOH (6:4), aqueous with cosolvent or surfactant or cyclodextrin, thermodynamic from solid, mixture of 0.067 M phosphate buffer (pH 6.8) and EtOH (6:4), shaken 48 h at 4 °C, most stable crystals; for Fold more soluble than symmetric isomer 6: relative to 6
Method: The crystals were ground with an agate mortar and suspended in a mixture of 0.067 M phosphate buffer (pH 6.8) and EtOH (6:4). The suspension was shaken for 48 h at 4 °C, then filtered through a Millipore Millex-LG filter (0.20 μm). The filtrate was diluted in DMF and subjected to HPLC. The solubility was calculated by the absolute calibration curve method. We used a mixed solvent because the solubility in 0.067 M phosphate buffer (pH 6.8) was too low to allow quantification. EtOH is used clinically as a solubilizer for insoluble drugs such as taxol and pacritaxel. When the solutions were shaken at 37 °C, hydrolysis of the ester moiety occurred, and therefore the suspensions were shaken at 4 °C.

[3] = Membrane permeability by retention on IAM column; format: in vitro ADME; conditions: IAM.PC.DD2 column, 0.1 M phosphate buffer (pH 6.8) in 60% CH3CN, 1.0 mL/min, 37 °C
Method: Membrane permeability was determined by HPLC on an IAM.PC.DD2 column (Regis Technologies, Inc., 10 μm, 300 Å, 30 mm × 4.6 mm) eluted with mobile phase consisting of 0.1 M phosphate buffer (pH 6.8) and CH3CN (4:6) at a flow rate of 1.0 mL/min, with UV monitoring at 254 nm, 37 °C.
Firstly, we evaluated membrane permeability by using an Immobilized Artificial Membrane (IAM) column, which contains silica gel bearing phosphatidylcholine and widely utilized to predict membrane permeability[31],[32].

[4] = Crystal density (X-ray crystallography); format: physicochemical; conditions: measured crystal density
[5] = Hydrolysis of prodrugs without hepatocytes; format: in vitro ADME; conditions: 50 μM, 2 h, 37 °C
Method: as §1

ERα = target: T1, ERα (Homo sapiens, UniProt P03372); assay: Luciferase reporter gene assay, ERα antagonistic activity; format: cell-based; conditions: HEK 293 cells, GAL4N-human ERα ligand binding domain, with 0.3 nM estradiol, 24 h; mean ± SD
T1 construct: expressed in transfected cells; host or cells: HEK 293 cells
T1 sequence (P03372 311-547 limits assumed): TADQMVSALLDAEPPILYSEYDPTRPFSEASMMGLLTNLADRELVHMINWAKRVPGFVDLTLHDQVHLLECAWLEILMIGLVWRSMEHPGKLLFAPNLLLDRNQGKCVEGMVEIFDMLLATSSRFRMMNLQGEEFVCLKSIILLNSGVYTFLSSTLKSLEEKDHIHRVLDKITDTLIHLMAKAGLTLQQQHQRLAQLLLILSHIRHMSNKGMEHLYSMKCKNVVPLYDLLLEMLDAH
Method: (§2) HEK 293 cells were cultured in DMEM supplemented with 10% FBS and penicillin and streptomycin at 37 °C in a humidified incubator (5% CO2).
(§3) HEK 293 cells were plated at 20% confluence in a 96-well plate at 24 h prior to transfection. Transfection of plasmids (CMX-GAL4N-human ERα/β ligand binding domain, TK-MH100x4-Luc, CMX-β-galactosidase) was performed by the calcium phosphate coprecipitation method. Test compounds in DMSO (final 0.5%) were added at 24 h after transfection, together with 0.3 nM estradiol. The plate was incubated for 24 h, then luciferase substrate solution was added to each well and luminescence was measured on an EnVision microplate reader. β-Galactosidase was added and the absorbance was measured on the microplate reader with emission detection at 405 nm. Each sample was evaluated in triplicate for two times and the mean value was calculated. A six-point sigmoidal dose-response curve was generated for each compound. The IC50 value for each compound was calculated by Origin software. In Table 4, biological reproducibility is reported as the mean IC50 SD.

ERβ = target: T2, ERβ (Homo sapiens, UniProt Q92731); assay: Luciferase reporter gene assay, ERβ antagonistic activity; format: cell-based; conditions: HEK 293 cells, GAL4N-human ERβ ligand binding domain, with 0.3 nM estradiol, 24 h; mean ± SD
T2 construct: expressed in transfected cells; host or cells: HEK 293 cells
T2 sequence (Q92731 264-498 limits assumed): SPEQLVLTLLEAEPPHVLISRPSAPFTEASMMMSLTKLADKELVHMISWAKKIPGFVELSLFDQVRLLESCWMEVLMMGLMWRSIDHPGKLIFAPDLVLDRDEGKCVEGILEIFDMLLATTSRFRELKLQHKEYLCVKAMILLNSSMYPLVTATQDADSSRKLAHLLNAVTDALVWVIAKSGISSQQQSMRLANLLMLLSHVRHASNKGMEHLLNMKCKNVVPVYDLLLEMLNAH
Method: as §2, §3

[6] = Aqueous solubility in 0.067 M phosphate buffer pH 7.4; format: physicochemical
Method: Cyclofenil (1) is an antagonist of estrogen receptors (ER) α and β that is clinically used to treat menstrual disturbances, anovulatory infertility and menopausal symptoms (Fig. 1). However, 1 has poor aqueous solubility (< 1 μg/mL in 0.067 M phosphate buffer pH 7.4). We considered that this low solubility might be due to the symmetric structure (σ = 2, point group: C2v), and we hypothesized that chemical modification of 1 to an asymmetric structure (point group: Cs and C1) would improve the aqueous solubility. To investigate the relationship between molecular shape (symmetry) and aqueous solubility, we focused on a small chemical modification, that is, introduction of a hydrophobic alkyl group. Cyclofenil (1) is a prodrug that is hydrolyzed by esterases after administration, and the active form is diol 2. Therefore, we initially considered that replacement of an acetyl group on 1 with a different acyl group (3a–d) might improve the aqueous solubility without loss of biological activity. As a second approach, we designed methylated analogs 4a–c substituted at the 2-/3-position of the phenyl group or the 3-position of the cyclohexyl group, respectively. We also designed symmetrical analogs 5a–c and 6 for comparison.

[7] = phosphate buffer (pH 6.8)/EtOH (6:4)

Row | Structure (SMILES) | Hydrolysis rate with hepatocytes [1] [%] | logP (LogP) | solubility at 48 h [2] [µg/mL] | Fold more soluble than symmetric isomer 6 [2, 7] [fold] | Fold more soluble than 1 ([2]; relative to cyclofenil (1), phosphate buffer (pH 6.8)/EtOH (6:4)) [fold] | Retention time on IAM column [3] [min] | Crystal density [4] [g/mL] | melting point [°C] | Hydrolysis rate without hepatocytes [5] [%] | IC50 (ERα) [nM] | IC50 (ERβ) [nM] | solubility [6] [µg/mL] | Fold more soluble than symmetric isomer 5a ([2]; relative to 5a, phosphate buffer (pH 6.8)/EtOH (6:4)) [fold]
1 | CC(=O)Oc1ccc(C(=C2CCC[C@@H](C)C2)c2ccc(OC(C)=O)cc2)cc1 [(R)-4c, (R)-((3-Methylcyclohexylidene)methylene)bis(4,1-phenylene)diacetate] | 100 | 5.34 | 27.8 (≈ 73.5 µM) | 7.7 | 3.6 | 3.93 | 1.227 | 92 | 13.8 | – | – | – | –
2 | C[C@@H]1CCCC(=C(c2ccc(O)cc2)c2ccc(O)cc2)C1 [(R)-13a, (R)-4,4’-((3-Methylcyclohexylidene)methylene)diphenol] | – | – | – | – | – | – | – | – | – | 16 ± 0.71 | 4.5 ± 0.57 | – | –
3 | CC(=O)Oc1ccc(C(=C2CCCCC2)c2ccc(OC(C)=O)cc2)cc1 [Compound 1, cyclofenil] | 100 | 4.91 | 7.76 (≈ 21.3 µM) | – | – | 3.15 | 1.268 | – | 14.8 | – | – | < 1 | –
4 | Oc1ccc(C(=C2CCCCC2)c2ccc(O)cc2)cc1 [Compound 2, Bis(4-hydroxyphenyl)methylenecyclohexane, reference compound] | – | – | – | – | – | – | – | – | – | 13 ± 7.5 | 4.5 ± 0.99 | – | –
5 | CCC(=O)Oc1ccc(C(=C2CCCCC2)c2ccc(OC(C)=O)cc2)cc1 [Compound 3a, 4-((4-Acetoxyphenyl)(cyclohexylidene)methyl)phenylpropionate] | 100 | 5.48 | 3.38 (≈ 8.93 µM) | – | – | 4.22 | – | 132.8 | 15.8 | – | – | – | –
6 | CCCC(=O)Oc1ccc(C(=C2CCCCC2)c2ccc(OC(C)=O)cc2)cc1 [Compound 3b, 4-((4-Acetoxyphenyl)(cyclohexylidene)methyl)phenylbutyrate] | 92.1 | 6 | 10.8 (≈ 27.5 µM) | – | – | 5.97 | 1.236 | 69 | 6.3 | – | – | – | 17.3
7 | CC(=O)Oc1ccc(C(=C2CCCCC2)c2ccc(OC(=O)C(C)C)cc2)cc1 [Compound 3c, 4-((4-Acetoxyphenyl)(cyclohexylidene)methyl)phenylisobutyrate] | 94.5 | 6.01 | 0.719 (≈ 1.83 µM) | – | – | 5.93 | – | 136.5 | 0 | – | – | – | –
8 | CC(=O)Oc1ccc(C(=C2CCCCC2)c2ccc(OC(=O)C(C)(C)C)cc2)cc1 [Compound 3d, 4-((4-Acetoxyphenyl)(cyclohexylidene)methyl)phenylpivalate] | 77.7 | 6.5 | 2.25 (≈ 5.53 µM) | – | – | 8.44 | – | 127 | 0 | – | – | – | –
9 | CC(=O)Oc1ccc(C(=C2CCCCC2)c2ccc(OC(C)=O)c(C)c2)cc1 [Compound 4a, 4-((4-Acetoxy-3-methylphenyl)(cyclohexylidene)methyl)phenylacetate] | 100 | 5.26 | 10.3 (≈ 27.2 µM) | 2.9 | – | 3.72 | – | 114 | 0 | – | – | – | –
10 | CC(=O)Oc1ccc(C(=C2CCCCC2)c2ccc(OC(C)=O)cc2C)cc1 [Compound 4b, 4-((4-Acetoxy-2-methylphenyl)(cyclohexylidene)methyl)phenylacetate] | – | 5.12 | 23.6 (≈ 62.4 µM) | 6.5 | – | – | – | 99.9 | – | – | – | – | –
11 | CCC(=O)Oc1ccc(C(=C2CCCCC2)c2ccc(OC(=O)CC)cc2)cc1 [Compound 5a, (Cyclohexylidenemethylene)bis(4,1-phenylene)dipropionate] | – | 6.02 | 0.622 (≈ 1.58 µM) | – | – | – | – | 139 | – | – | – | – | –
12 | CCCC(=O)Oc1ccc(C(=C2CCCCC2)c2ccc(OC(=O)CCC)cc2)cc1 [Compound 5b, (Cyclohexylidenemethylene)bis(4,1-phenylene)dibutyrate] | – | 7.08 | 0.964 (≈ 2.29 µM) | – | – | – | 1.244 | 80.9 | – | – | – | – | –
13 | CC(C)C(=O)Oc1ccc(C(=C2CCCCC2)c2ccc(OC(=O)C(C)C)cc2)cc1 [Compound 5c, (Cyclohexylidenemethylene)bis(4,1-phenylene)bis(2-methylpropanoate)] | – | 7.16 | 0.0811 (≈ 0.193 µM) | – | – | – | – | 129 | – | – | – | – | –
14 | CC(=O)Oc1ccc(C(=C2CCC(C)CC2)c2ccc(OC(C)=O)cc2)cc1 (stereo not shown) [Compound 6, ((4-Methylcyclohexylidene)methylene)bis(4,1-phenylene)diacetate] | – | 5.41 | 3.61 (≈ 9.54 µM) | – | – | – | 1.243 | 137 | – | – | – | – | –
15 | Cc1cc(C(=C2CCCCC2)c2ccc(O)cc2)ccc1O [Compound 10a, 4-(Cyclohexylidene(4-hydroxyphenyl)methyl)-2-methylphenol] | – | – | – | – | – | – | – | – | – | 120 ± 7.1 | 51 ± 40 | – | –

Reference: publication PMC8209153, “Improvement in aqueous solubility of achiral symmetric cyclofenil by modification to a chiral asymmetric analog” (Scientific Reports, 2021)
